# Laboratory results: US7048907B2, “Synthesis, compositions and methods for the measurement of the concentration of stable-isotope labeled compounds in life forms and life form excretory products” (BioPhysics Assay Laboratory, Inc., priority 2001, dated 2006)
# Columns and labels:
# [1] = Kinetics of blood depletion and urine accumulation of chelates in the rat; type: in vivo; details: average of three rats
# Description: One half ml of Sm-DTPA (0.01 mg/kg), dissolved in saline (pH 7), is injected into the tail vein of three rats. Samples of blood are obtained at 10, 30 and 60 minutes following injection and analyzed for Sm-DTPA by neutron activation. The percent of starting amount of the Sm-DTPA at each time interval is presented in Table 18 (last column on right). Similarly, the accumulation of Sm-DTPA in the rat urine at two times is shown in the last column of Table 18.
# One half ml of Technetium-99m-DTPA (1 millicurie), Gd-DTPA (0.05 mg/kg), and Sm-DTPA (0.01 mg/kg) are each dissolved in saline (pH 7), and are injected simultaneously into the tail vein of three rats. Samples of blood are obtained at 10, 30 and 60 minutes following injection and analyzed for ^99mTc-DTPA (gamma counting), Gd-DTPA (T1 relaxation) and Sm-DTPA (neutron activation).
# One half ml of Sm-DTPA, La-DTPA and Eu-DTPA (each 0.01 mg/kg), dissolved in saline (pH 7) are injected simultaneously into the tail vein of three rats. Samples of blood are obtained at 10, 30 and 60 minutes following injection and analyzed for each element by neutron activation.
# Samples of Sm-DTPA, La-DTPA and Eu-DTPA (0.5 ml; 0.01 mg/kg), each dissolved in saline (pH 7), are injected sequentially at 0, 20, and 40 minutes into the tail vein of three rats. Samples of blood are obtained at 10, 30 and 60 min following each injection and analyzed for each element by neutron activation.
# [2] = Stability of chelates to autoclaving (CM-Sephadex assay); type: physicochemical; details: for % of total / dpm: autoclaved 30 minutes at 121° C.
# Description: A sample comprising 5 ml of Sm-DTPA, La-DTPA, and Eu-DTPA prepared in Examples 9, 10, and 11 were placed in 10 ml glass bottles, each capped with a grey butyl rubber cap, and the caps were crimped. Samples were autoclaved for 30 minutes at 121° C.
# Five ml of each of Sm-DOTA, La-DOTA, and Eu-DOTA prepared in Examples 13, 14, and 15 were placed in 10 ml glass bottles capped with a grey butyl rubber cap and crimped. Samples were autoclaved for 30 minutes at 121° C. Samples were allowed to cool to room temperature and were assayed as described in Examples 25.
# [3] = Assay of chelate on carboxymethyl (CM) Sephadex column (chelate formation, charge); type: physicochemical; details: for time within which the chelate forms: room temperature, Tris pH 7.5
# Description: Preparation of carboxymethyl sephadex column. To two 10 ml plastic pipets cut off at the 3 ml mark and plugged with glass wool at the bottom add enough slurry to form a 2 ml volume of the CM sephadex. Wash the packed resin with 6 ml of 1 M Tris buffer pH 7.5, and 6 ml of 0.01M Tris buffer pH 7.5. […] Collect the eluants of fractions as follows. Fraction 1.3 ml of 0.01 M Tris buffer pH 7.5 and allow to drain into column. Fraction 2.1 ml of sample (gadolinium-DTPA or gadolinium chloride) and allow to drain into column. Apply 3 ml of 0.01 M Tris buffer pH 7.5 and allow to drain into column. Fraction 3.3 ml of 0.01M Tris buffer pH 7.5 and allow to drain into column. Dry all fractions at 70° C. for 76 hours, dissolve in 1 ml of 1 mM HCl and assay by atomic absorption.
# (§1) Preparation of carboxymethyl Sephadex column. To two 10 ml plastic pipets which had been cut off at the 3 ml mark and plugged with glass wool at the bottom, enough slurry was added to form a 2 ml volume of the CM Sephadex. The packed resin was wash with 6 ml of 1 M Tris buffer pH 7.5, and 6 ml of 0.01M Tris buffer pH 7.5. […] Fractions were applied as follows. Fraction 1. Three ml of 0.01 M Tris buffer pH 7.5 and allow to drain into column. Fraction 2. One ml of sample (samarium-DTPA or samarium chloride) and allow to drain into column. Apply 3 ml of 0.01 M Tris buffer pH 7.5 and allow to drain into column. Fraction 3. Three ml of 0.01M Tris buffer pH 7.5 and allow to drain into column. Collect the eluant of fractions 1 through 3. Fraction 4. Column and contents.
# as §1, with “were” for “had been”, “washed” for “wash”, “(lanthanum-DTPA” for “(samarium-DTPA”, “lanthanum” for “samarium”
# as §1, with “were” for “had been”, “washed” for “wash”, “(Europium-DTPA” for “(samarium-DTPA”, “Europium” for “samarium”
# Preparation of carboxymethyl sephadex column. To a 10 ml plastic pipet cut off at the 3 ml mark and plugged with glass wool at the bottom, add enough slurry to form a 2 ml volume of the CM sephadex. Wash the packed resin with 6 ml of 1 M Tris buffer pH 7.5, and 6 ml of 0.01M Tris buffer pH 7.5. […] Apply fractions as follows. Fraction 1. One ml of sample A and allow to drain into column.
# [4] = blood 10 min, Sm-DTPA, La-DTPA and Eu-DTPA (each 0.01 mg/kg i.v.) simultaneously administered (Example 31)
# [5] = blood 10 min after each injection, Sm-DTPA, La-DTPA, Eu-DTPA (0.01 mg/kg i.v.) sequentially administered at 0, 20, 40 minutes (Example 32)
# [6] = blood 30 min, Sm-DTPA, La-DTPA and Eu-DTPA simultaneously administered (Example 31)
# [7] = blood 30 min after each injection, sequentially administered (Example 32)
# [8] = blood 60 min, Sm-DTPA, La-DTPA and Eu-DTPA simultaneously administered (Example 31)
# [9] = blood 60 min after each injection, sequentially administered (Example 32)
# [10] = urine 30 min, Sm-DTPA, La-DTPA and Eu-DTPA simultaneously administered (Example 31)
# [11] = urine 30 min, sequentially administered (Example 32)
# [12] = urine 180 min, Sm-DTPA, La-DTPA and Eu-DTPA simultaneously administered (Example 31)
# [13] = urine 180 min, sequentially administered (Example 32)
# [14] = Fraction 1: sample diluted 1:10 then 2-3 ml 0.01M Tris pH 7.5 (eluate)
# [15] = Fraction 2: 3 ml 0.01M Tris pH 7.5
# [16] = Fraction 3: column and contents (retained)
# [17] = Fraction 1: 3 ml 0.01M Tris pH 7.5 before sample
# [18] = Fraction 2: 1 ml sample then 3 ml 0.01M Tris pH 7.5 (eluate)
# [19] = Fraction 3: further 3 ml 0.01M Tris pH 7.5
# [20] = Fraction 4: column and contents (retained)
# [21] = blood 10 min after i.v. injection, ^99mTc-DTPA, Gd-DTPA and Sm-DTPA simultaneously administered (Example 30)
# [22] = blood 30 min, ^99mTc-DTPA, Gd-DTPA and Sm-DTPA simultaneously administered (Example 30)
# [23] = blood 60 min, ^99mTc-DTPA, Gd-DTPA and Sm-DTPA simultaneously administered (Example 30)
# [24] = urine 30 min, ^99mTc-DTPA, Gd-DTPA and Sm-DTPA simultaneously administered (Example 30)
# [25] = urine 180 min, ^99mTc-DTPA, Gd-DTPA and Sm-DTPA simultaneously administered (Example 30)
compound,measurement,setting,value
O=C([O-])CN(CCN(CC(=O)[O-])CC(=O)[O-])CCN(CC(=O)[O-])CC(=O)[O-].[Eu+3] [Eu-DTPA],"Percent of initial injection, blood",[1]; [4],87% of initial injection
same,"Percent of initial injection, blood",[1]; [5],87% of initial injection
same,"Percent of initial injection, blood",[1]; [6],62% of initial injection
same,"Percent of initial injection, blood",[1]; [7],64% of initial injection
same,"Percent of initial injection, blood",[1]; [8],33% of initial injection
same,"Percent of initial injection, blood",[1]; [9],34% of initial injection
same,"Percent of initial injection, urine",[1]; [10],21% of initial injection
same,"Percent of initial injection, urine",[1]; [11],26% of initial injection
same,"Percent of initial injection, urine",[1]; [12],96% of initial injection
same,"Percent of initial injection, urine",[1]; [13],97% of initial injection
same,% eluted from CM-Sephadex column following autoclaving,[2],100%
same,% of total,[2]; [14],97 % of total
same,dpm,[2]; [14],380954 dpm
same,% of total,[2]; [15],3 % of total
same,dpm,[2]; [15],13226 dpm
same,% of total,[2]; [16],0 % of total
same,dpm,[2]; [16],0 dpm
same,% eluted from the CM-Sephadex column,[3],100%
same,% of total,[3]; [17],0 % of total
same,dpm,[3]; [17],0 dpm
same,% of total,[3]; [18],100 % of total
same,dpm,[3]; [18],22115 dpm
same,% of total,[3]; [19],0 % of total
same,dpm,[3]; [19],0 dpm
same,% of total,[3]; [20],0 % of total
same,dpm,[3]; [20],0 dpm
same,time within which the chelate forms,[3],≤ 5 min
O=C([O-])CN(CCN(CC(=O)[O-])CC(=O)[O-])CCN(CC(=O)[O-])CC(=O)[O-].[Sm+3] [Sm-DTPA],"Percent of initial injection, blood","[1]; blood 10 min, Sm-DTPA 0.01 mg/kg i.v. administered alone (Example 29)",86% of initial injection
same,"Percent of initial injection, blood",[1]; [4],83% of initial injection
same,"Percent of initial injection, blood",[1]; [5],81% of initial injection
same,"Percent of initial injection, blood",[1]; [21],88% of initial injection
same,"Percent of initial injection, blood","[1]; blood 30 min, Sm-DTPA 0.01 mg/kg i.v. administered alone (Example 29)",61% of initial injection
same,"Percent of initial injection, blood",[1]; [6],61% of initial injection
same,"Percent of initial injection, blood",[1]; [22],60% of initial injection
same,"Percent of initial injection, blood",[1]; [7],59% of initial injection
same,"Percent of initial injection, blood","[1]; blood 60 min, Sm-DTPA 0.01 mg/kg i.v. administered alone (Example 29)",28% of initial injection
same,"Percent of initial injection, blood",[1]; [8],34% of initial injection
same,"Percent of initial injection, blood",[1]; [23],33% of initial injection
same,"Percent of initial injection, blood",[1]; [9],29% of initial injection
same,"Percent of initial injection, urine","[1]; urine 30 min, Sm-DTPA 0.01 mg/kg i.v. administered alone (Example 29)",24% of initial injection
same,"Percent of initial injection, urine",[1]; [10],22% of initial injection
same,"Percent of initial injection, urine",[1]; [24],26% of initial injection
same,"Percent of initial injection, urine",[1]; [11],20% of initial injection
same,"Percent of initial injection, urine","[1]; urine 180 min, Sm-DTPA 0.01 mg/kg i.v. administered alone (Example 29)",91% of initial injection
same,"Percent of initial injection, urine",[1]; [12],90% of initial injection
same,"Percent of initial injection, urine",[1]; [25],90% of initial injection
same,"Percent of initial injection, urine",[1]; [13],89% of initial injection
same,% eluted from CM-Sephadex column following autoclaving,[2],100%
same,% of total,[2]; [14],98 % of total
same,dpm,[2]; [14],1128928 dpm
same,% of total,[2]; [15],2 % of total
same,dpm,[2]; [15],26387 dpm
same,% of total,[2]; [16],0 % of total
same,dpm,[2]; [16],1867 dpm
same,% eluted from the CM-Sephadex column,[3],98%
same,% of total,[3]; [17],0 % of total
same,dpm,[3]; [17],0 dpm
same,% of total,[3]; [18],97 % of total
same,dpm,[3]; [18],148208 dpm
same,% of total,[3]; [19],1 % of total
same,dpm,[3]; [19],19089 dpm
same,% of total,[3]; [20],2 % of total
same,dpm,[3]; [20],24257 dpm
same,time within which the chelate forms,[3],≤ 5 min
"O=C([O-])CN(CCN(CC(=O)[O-])CC(=O)O)CCN(CC(=O)[O-])CC(=O)O.[Gd+3] [Gd-DTPA, Gd-diethylenetriaminepentaacetic acid]","Percent of initial injection, blood",[1]; [21],83% of initial injection
same,"Percent of initial injection, blood",[1]; [22],65% of initial injection
same,"Percent of initial injection, blood",[1]; [23],35% of initial injection
same,"Percent of initial injection, urine",[1]; [24],22% of initial injection
same,"Percent of initial injection, urine",[1]; [25],94% of initial injection
same,% eluted from the CM-Sephadex column,[3],100%
same,% of total,[3]; [17],0 % of total
same,% of total,[3]; [18],100 % of total
same,% of total,[3]; [19],0 % of total
same,time within which the chelate forms,[3],≤ 5 min
